Measurements from patent US4110626A, “Method for improving the quality of the fragrance of perfumes using aliphatic dibasic acid diesters” (Shiseido Co., Ltd., priority 1976, dated 1978).
Structures can show the parent of a compound that is named as a salt.

Assays:
Pseudomonas aeruginosa = assay: Microorganism assimilation; settings: for OD (turbidity): 660 nm; for Assimilation by microorganism: conclusion from Table 8
Procedure: 100 ml of the above liquid medium was placed in a 500 ml Sakaguchi flask, and sterilized at 120° C for 15 minutes in an autoclave in a customary manner. After cooling, the culture medium was inoculated with a prescribed amount of a suspension of the pre-cultured microorganism and cultivated at 30° C with shaking 120 times per minute.
Changes with time in the pH, turbidity, number of living cells were determined.
The turbidity was determined as follows: 2 ml of the culture broth was collected, and the precipitate was separated with a centrifugal separator. The precipitate was washed with acetone, and suspended in 2 ml of distilled water. The turbidity (OD) of the suspension at 660 nm was measured.

[1] = Stabilizing effect on octanal (APHA color); assay type: physicochemical; settings: 37° C, 1 month; original APHA 15; 50% controlling agent added or octanal alone
Procedure: Octanal was selected as a single perfume, and the stabilizing effect of the perfume controlling agent was determined.
Amount of Perfume Controlling Agent: 50% based on the octanal (in the case of both DIBA and DIAA)
Test Temperature and Period: 37° C, one month (checked every week)
Items Evaluated: Acid value (AV), carbonyl value (COV), APHA color
In the test, a 100 ml brown bottle boiled in water for 12 hours was used, and the head space of the bottle was purged with nitrogen gas after the octanal had been introduced into the bottle.
Specifically, the color of a solution obtained by diluting 1 ml of a standard original color liquid (octanal) with water exactly to a volume of 100 ml is taken as APHA No. 5, and the APHA color number is increased by a multiple of 5 (as 10, 15, 20 . . . ) for every 1 ml increase of the original liquid.

[2] = Fixing effect: analysis of residue on paper after standing 15 minutes; assay type: physicochemical
Procedure: (§1) Then, the fixing effect was evaluated by a second head space gas chromatographic (II) method (HS-GC (II)). Specifically, a perfume containing 0.7 g of a perfume controlling agent was coated on a sheet of paper having a predetermined thickness, area (11.5 × 7.5 cm), and weight (about 2.9 g). The coated paper was allowed to stand for 15 minutes in an open space in a room (6 × 4 × 2.5 m) maintained at a humidity of 50% at a ventilation rate of 1,500 m^3 /hr. The paper was then transferred into a 1,000 ml Erlenmeyer flask, and the flask was tightly sealed. After a lapse of 15 minutes, the volatilized portion was collected and analyzed by gas chromatography under the conditions shown Table A above. Furthermore, the residue on the paper was extracted with acetone, and analyzed by gas chromatography using conditions shown in Table B below.
Column: 5% FFAP (free fatty acid polyester; a trade name for a product of Nippon Chromato Co., Ltd.) on diatomaceous earth (2m)
Column Temperature: 80° C (5 minutes, isothermal) to 220° C (4° C/min.)
Injector Temperature: 260° C
Detector Temperature: 260° C
Detector: Flame Ionization Detector
Carrier Gas: He (40 ml/min.)
(§2) The composition of the model perfume used was as follows:
The values shown in Table 5 above were obtained by calculating the areas of the perfumes while the area of musk ketone measured by gas chromatography was taken as 1. (This calculating procedure was adopted because musk ketone has a high boiling point, and scarcely volatilizes at 30° C.)

[3] = Acute oral toxicity (LD50); settings: for LD50: acute oral toxicity
[4] = Fixing effect: HS-GC (II), analysis of volatilized portion after standing 15 minutes; assay type: physicochemical; settings: controlling agent 15%, model perfume 5%
Procedure: as §1, §2
Model Perfume: 5% by weight
95% Ethanol: 95% by weight
The composition of the perfume containing a perfume controlling agent was as follows:
Perfume Controlling Agent: 15% by weight
95% Ethanol: 80% by weight

skin of an albino rabbit = assay: Primary irritation of the skin of an albino rabbit; assay type: in vivo; settings: 0.3 ml, intact and abraded area, 24 hours
Procedure: The primary irritation of the skin of an albino rabbit was determined by adhering 0.3 ml of a test agent on a lint cloth patch, applying the cloth to an intact area and an abraded area of the skin of the back of the albino rabbit, and evaluating the skin reactions at these two areas after a lapse of 24 hours. Then, an overall evaluation was made.

skin of a guinea pig = assay: Cumulative irritation on the skin of a guinea pig; assay type: in vivo; settings: 0.3 ml three times at 24 hour intervals, intact skin
Procedure: The cumulative irritation on the skin of a guinea pig was evaluated by coating 0.3 ml of a test agent on intact skin of the guinea pig and judging the skin reaction after a lapse of 24 hours, then coating the test agent in an amount of 0.3 ml on the same site twice, each at 24 hour intervals, and judging the reaction of the skin after a lapse of 72 hours (after coating three times).

[5] = Citral (not present: 1.5), area of musk ketone taken as 1
[6] = Limonene (not present: 0.3), area of musk ketone taken as 1
[7] = Linalool (not present: 6.4), area of musk ketone taken as 1
[8] = Linalyl Acetate (not present: 5.1), area of musk ketone taken as 1
[9] = Musk Ketone (reference, taken as 1; not present: 1.0)
[10] = Pinene (not present: 0.0), area of musk ketone taken as 1
[11] = Linalyl Acetate (not present: 39.0%)
[12] = Musk ketone (not present: 0.0%)

| Molecule | pH (Pseudomonas aeruginosa; 0 days elapsed) | Number of Living Cells (Pseudomonas aeruginosa; 2 days elapsed) | pH (Pseudomonas aeruginosa; 2 days elapsed) | OD (turbidity) (Pseudomonas aeruginosa; 2 days elapsed) | Number of Living Cells (Pseudomonas aeruginosa; 7 days elapsed) | pH (Pseudomonas aeruginosa; 7 days elapsed) | OD (turbidity) (Pseudomonas aeruginosa; 7 days elapsed) | Number of Living Cells (Pseudomonas aeruginosa; 14 days elapsed) | pH (Pseudomonas aeruginosa; 14 days elapsed) | OD (turbidity) (Pseudomonas aeruginosa; 14 days elapsed) | Assimilation by microorganism (Pseudomonas aeruginosa) | LD50 [3] [mL/kg] | Analysis of Volatilized Portion after Standing 15 Minutes (HS-GC (II) Method) ([4]; Citral (not present: 3.5%)) [%] | Analysis of Volatilized Portion after Standing 15 Minutes (HS-GC (II) Method) ([4]; Limonene (not present: 2.6%)) [%] | Analysis of Volatilized Portion after Standing 15 Minutes (HS-GC (II) Method) ([4]; Linalool (not present: 45.2%)) [%] | Analysis of Volatilized Portion after Standing 15 Minutes (HS-GC (II) Method) [4, 11] [%] | Analysis of Volatilized Portion after Standing 15 Minutes (HS-GC (II) Method) [4, 12] [%] | Analysis of Volatilized Portion after Standing 15 Minutes (HS-GC (II) Method) ([4]; Pinene (not present: 0.2%)) [%] | further results |
| --- | --- | --- | --- | --- | --- | --- | --- | --- | --- | --- | --- | --- | --- | --- | --- | --- | --- | --- | --- |
| CC(C)OC(=O)CCCCC(=O)OC(C)C [Diisopropyl Adipate, diisopropyl adipate] | 6.90 | 4.0 × 10^5 | 6.90 | 0.005 | 1.9 × 10^7 | 5.32 | 0.26 | < 10^3 | 4.22 | 0.46 | assimilated very well | – | – | – | – | – | – | – | – |
| CCCCCCCC=O [octanal] | – | – | – | – | – | – | – | – | – | – | – | – | – | – | – | – | – | – | APHA color of octanal [1]: > 300 APHA |
| dipropylene glycol | 6.84 | 3.1 × 10^6 | 6.84 | 0 | 7.2 × 10^7 | 6.82 | 0.005 | 4.7 × 10^6 | 6.82 | 0 | not assimilated | 17.6 | 3.7 | 2.7 | 42.8 | 40.0 | 0.0 | 0.2 | Analysis of Residue on Paper after Standing 15 Minutes (Area Ratio) [2, 5]: 1.1; Analysis of Residue on Paper after Standing 15 Minutes (Area Ratio) [2, 6]: 0; Analysis of Residue on Paper after Standing 15 Minutes (Area Ratio) [2, 7]: 4.9; Analysis of Residue on Paper after Standing 15 Minutes (Area Ratio) [2, 8]: 4.1; Analysis of Residue on Paper after Standing 15 Minutes (Area Ratio) [2, 9]: 1; Analysis of Residue on Paper after Standing 15 Minutes (Area Ratio) [2, 10]: 0 |
| CCCCCCCCCCCCCC(=O)OC(C)C [Isopropyl Myristate] | – | – | – | – | – | – | – | – | – | – | – | > 25 | – | – | – | – | – | – | – |
| CC(C)CCOC(=O)CCCCC(=O)OCCC(C)C (single isomer, unassigned) [DIAA, diisoamyl adipate] | 6.90 | 1.6 × 10^6 | 4.74 | 0.105 | < 10^2 | 4.40 | 0.05 | < 10^2 | 4.30 | 0.055 | assimilated very well | > 25 | – | – | – | – | – | – | Primary irritation of the skin (skin of an albino rabbit): did not exhibit irritating effects; APHA color of octanal [1]: about 30 APHA; Cumulative irritation on the skin (skin of a guinea pig): did not exhibit irritating effects; Acute toxicity compared with conventional perfume controlling agents ([3]; conclusion from Table 1): equal to, or lower than, other conventional perfume controlling agents |
| CC(O)CO (centres unmarked) [Propylene Glycol] | – | – | – | – | – | – | – | – | – | – | – | 23.9 | – | – | – | – | – | – | – |
| O=C(OCc1ccccc1)c1ccccc1 [Benzyl Benzoate, benzyl benzoate] | – | – | – | – | – | – | – | – | – | – | – | – | 1.6 | 31.3 | 37.7 | 20.6 | 0.0 | 1.3 | Analysis of Residue on Paper after Standing 15 Minutes (Area Ratio) [2, 5]: 1.8; Analysis of Residue on Paper after Standing 15 Minutes (Area Ratio) [2, 6]: 0.38; Analysis of Residue on Paper after Standing 15 Minutes (Area Ratio) [2, 7]: 8.1; Analysis of Residue on Paper after Standing 15 Minutes (Area Ratio) [2, 8]: 8; Analysis of Residue on Paper after Standing 15 Minutes (Area Ratio) [2, 9]: 1; Analysis of Residue on Paper after Standing 15 Minutes (Area Ratio) [2, 10]: 0 |
| CCCCC(CC)COC(=O)CCCCC(=O)OCC(CC)CCCC (centres unmarked) [Di-2-ethylhexyl Adipate, di-2-ethylhexyl adipate] | 6.86 | 1.3 × 10^6 | 6.60 | 0.008 | 5.0 × 10^7 | 6.30 | 0.01 | 1.4 × 10^9 | 6.10 | 0.15 | gradually assimilated as time passed | – | – | – | – | – | – | – | – |
| CCOC(=O)c1ccccc1C(=O)OCC [Diethyl Phthalate, diethyl phthalate] | 6.86 | 2.5 × 10^6 | 6.86 | 0.001 | 4.2 × 10^4 | 6.86 | 0.001 | 5.2 × 10^5 | 6.86 | 0 | not assimilated | – | 1.2 | 31.3 | 40.5 | 18.4 | 0.0 | 0.9 | – |
| CCOC(=O)CC(O)(CC(=O)OCC)C(=O)OCC [Triethyl Citrate] | – | – | – | – | – | – | – | – | – | – | – | > 25 | – | – | – | – | – | – | – |
